According to patent US10898481B2 (priority 2018, dated 2021):
Like-named read-outs stand apart in the source and are kept apart here.

Columns and labels:
hA2a = hA2a (Homo sapiens (Human), UniProt P29274); assay: Radioligand binding to hA2a membrane with [3H]-CGS21680; conditions: read-out: Binding Affinity (IC50 nM) hA2a
Source text: (§1) The empty boxes in the tables below indicate data not collected yet.

[1] = molecular target: hADORA1/CHO (hA1 expressing) cells (Homo sapiens (Human), UniProt P30542); assay: cell-based; conditions: 10 μM adenosine
Chain of hADORA1/CHO (hA1 expressing) cells (P30542 whole entry): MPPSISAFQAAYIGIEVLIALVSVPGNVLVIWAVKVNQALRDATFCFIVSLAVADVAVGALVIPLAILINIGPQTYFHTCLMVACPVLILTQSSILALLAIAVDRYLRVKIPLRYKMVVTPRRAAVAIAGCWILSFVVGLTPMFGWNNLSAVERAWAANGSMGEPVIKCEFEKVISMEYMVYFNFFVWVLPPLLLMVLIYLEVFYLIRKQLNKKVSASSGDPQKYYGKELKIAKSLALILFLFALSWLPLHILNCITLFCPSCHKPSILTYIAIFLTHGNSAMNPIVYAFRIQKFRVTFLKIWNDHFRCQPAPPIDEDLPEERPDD

hA2a/CHO = hA2a/CHO (Homo sapiens (Human), UniProt P29274); assay: cAMP inhibition assay in hA2a/CHO cells, 10 μM adenosine; assay type: cell-based; conditions: read-out: cAMP & FLIPR IC50 (nM) hA2a;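 also: compounds added to cells 30 min ahead of adenosine, then a further 30 min at 37 °C with adenosine before cAMP detection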
Chain of hA2a/CHO (P29274 whole entry): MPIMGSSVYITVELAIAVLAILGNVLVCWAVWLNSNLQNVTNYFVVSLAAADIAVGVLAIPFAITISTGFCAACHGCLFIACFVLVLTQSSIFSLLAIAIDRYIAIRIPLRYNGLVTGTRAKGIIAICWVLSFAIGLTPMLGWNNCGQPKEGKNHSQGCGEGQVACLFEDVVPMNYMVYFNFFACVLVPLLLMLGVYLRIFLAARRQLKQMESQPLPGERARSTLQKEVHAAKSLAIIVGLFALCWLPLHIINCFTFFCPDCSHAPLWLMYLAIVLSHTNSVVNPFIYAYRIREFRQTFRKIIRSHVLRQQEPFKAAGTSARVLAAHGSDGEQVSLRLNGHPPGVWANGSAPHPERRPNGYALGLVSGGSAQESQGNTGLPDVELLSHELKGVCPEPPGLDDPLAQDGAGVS

hA2b/CHO = hA2b/CHO (Homo sapiens (Human), UniProt P29275); assay: cAMP inhibition assay in hA2b/CHO cells, 10 μM adenosine; assay type: cell-based; conditions: read-out: cAMP & FLIPR IC50 (nM) hA2b;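 also: cells exposed to compound 30 min at 37 °C, then stimulated with adenosine a further 30 min, cAMP read after 60 min at room temperature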
Chain of hA2b/CHO (P29275 whole entry): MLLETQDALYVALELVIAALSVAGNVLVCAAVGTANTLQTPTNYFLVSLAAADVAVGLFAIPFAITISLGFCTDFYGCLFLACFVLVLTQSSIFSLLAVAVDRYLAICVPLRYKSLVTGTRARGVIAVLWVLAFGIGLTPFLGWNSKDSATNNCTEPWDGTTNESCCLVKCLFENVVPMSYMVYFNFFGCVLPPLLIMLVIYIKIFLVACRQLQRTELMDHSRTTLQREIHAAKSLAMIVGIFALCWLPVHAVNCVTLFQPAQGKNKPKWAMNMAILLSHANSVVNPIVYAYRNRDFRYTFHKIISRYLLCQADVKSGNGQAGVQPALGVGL

hA3/CHO = hA3/CHO (Homo sapiens (Human), UniProt P0DMS8); assay: cell-based
Chain of hA3/CHO (P0DMS8 whole entry): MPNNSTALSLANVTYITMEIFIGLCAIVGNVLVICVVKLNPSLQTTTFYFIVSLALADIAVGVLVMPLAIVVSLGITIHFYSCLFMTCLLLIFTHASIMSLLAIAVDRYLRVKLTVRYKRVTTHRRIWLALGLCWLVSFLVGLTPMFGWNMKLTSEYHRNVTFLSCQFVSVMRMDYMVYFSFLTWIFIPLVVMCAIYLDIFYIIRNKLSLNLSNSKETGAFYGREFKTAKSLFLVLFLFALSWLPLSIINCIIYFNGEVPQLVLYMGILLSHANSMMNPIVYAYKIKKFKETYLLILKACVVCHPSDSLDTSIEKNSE
Experimental: hA2a/CHO, hA2b/CHO, hA3/CHO and mA2a/CHO (Genscript) were plated at 5×10^3 cells/well into 384-well polystyrene plates at the day of experiment. Compounds were pre-incubated with cells for 30 min at 37° C., 5% CO2. Then 10 μM adenosine was added to the cells and incubated for 30 min at 37° C., 5% CO2. Detection reagent (CISBIO) was added and the plates were incubated for 60 min at room temperature. The signal was captured by Envision.

mA2a/CHO = mA2a/CHO (Mus musculus (Mouse), UniProt Q60613); assay: cAMP inhibition assay in mA2a/CHO cells, 10 μM adenosine; assay type: cell-based; conditions: read-out: cAMP & FLIPR IC50 (nM) mA2a;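 also: compounds preincubated 30 min at 37 °C before the adenosine challenge, then 30 min further stimulation, readout after 60 min detection reagent incubation at room temperature in 384-well plates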
Chain of mA2a/CHO (Q60613 whole entry): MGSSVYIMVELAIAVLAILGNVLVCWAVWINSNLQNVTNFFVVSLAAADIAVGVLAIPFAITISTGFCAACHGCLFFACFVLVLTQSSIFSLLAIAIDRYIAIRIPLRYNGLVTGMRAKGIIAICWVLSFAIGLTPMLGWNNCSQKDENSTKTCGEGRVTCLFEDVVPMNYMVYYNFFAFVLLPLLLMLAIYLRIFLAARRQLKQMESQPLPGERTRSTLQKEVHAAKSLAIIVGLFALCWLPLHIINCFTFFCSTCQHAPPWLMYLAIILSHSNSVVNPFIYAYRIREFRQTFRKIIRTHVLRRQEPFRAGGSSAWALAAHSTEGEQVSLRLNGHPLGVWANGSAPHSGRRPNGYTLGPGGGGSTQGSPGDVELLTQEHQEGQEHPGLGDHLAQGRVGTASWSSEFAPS

hA1 = hA1 (Homo sapiens (Human), UniProt P30542); conditions: hA1 membrane, [3H]-DPCPX; read-out: Binding Affinity (IC50 nM) hA1
Chain of hA1 (P30542 whole entry): as the sequence (P30542 whole entry) above
Source text: as §1

[2] = FLIPR inhibition, read-out: cAMP & FLIPR IC50 (nM) hA1
[3] = cAMP & FLIPR IC50 (nM) hA1, FLIPR inhibition

Chain of hA2a (P29274 whole entry): as the sequence (P29274 whole entry) above

Structure (SMILES) | IC50 (hA2a) [nM] | IC50 [1, 2] [nM] | IC50 (hA2a/CHO) [nM] | IC50 (hA2b/CHO) [nM] | IC50 (hA3/CHO) [µM] | IC50 (mA2a/CHO) [nM] | IC50 (hA1) [nM] | IC50 [1, 3] [nM]
Nc1nc(-c2ncco2)c(-c2ccc3nncn3c2)nc1C(=O)NCc1c(F)cccc1F [Example 34, 6-([1,2,4]triazolo[4,3-a]pyridin-6-yl)-3-amino-N-(2,6-difluorobenzyl)-5-(oxazol-2-yl)pyrazine-2-carboxamide] | 3.7 | 10000 | 63 | 330 | ≥ 10 | 192 |  | 
Cn1cc(-c2nc(C(=O)NCc3cccc(N)n3)c(N)nc2-c2ncco2)ccc1=O [Example 24, 3-amino-N-[(6-aminopyridin-2-yl)methyl]-6-(1-methyl-6-oxo-1,6-dihydropyridin-3-yl)-5-(1,3-oxazol-2-yl)pyrazine-2-carboxamide] | 11 | 9360 | 199 | 1460 | ≥ 10 | 641 |  | 
COC[C@H](C)NC(=O)c1nc(-c2ccc3ncc(C)n3c2)c(-c2ncco2)nc1N [Example 160, (S)-3-amino-N-(1-methoxypropan-2-yl)-6-(3-methylimidazo[1,2-a]pyridin-6-yl)-5-(oxazol-2-yl)pyrazine-2-carboxamide] | 3.15 | 4860 | 0.26 | 163 |  | 0.89 | 333 | 
Cc1cnc2ccc(-c3nc(C(=O)NCc4ncccc4F)c(N)nc3-c3ncco3)cn12 [Example 101, 3-amino-N-((3-fluoropyridin-2-yl)methyl)-6-(3-methylimidazo[1,2-a]pyridin-6-yl)-5-(oxazol-2-yl)pyrazine-2-carboxamide] |  | 45 |  |  |  |  | 5.6 | 
Cn1cnc2ccc(-c3nc(C(=O)NCc4ncccc4F)c(N)nc3-c3ncco3)cc21 [Example 51, 3-amino-N-((3-fluoropyridin-2-yl)methyl)-6-(3-methyl-3H-benzo[d]imidazol-5-yl)-5-(oxazol-2-yl)pyrazine-2-carboxamide] | 2.1 | 2500 | 1.2 | 5.5 |  | 9.6 | 78 | 
Cc1cnc2ccc(-c3nc(C(=O)NC[C@@H]4CCCO4)c(N)nc3-c3ncco3)cn12 [Example 127, (S)-3-amino-6-(3-methylimidazo[1,2-a]pyridin-6-yl)-5-(oxazol-2-yl)-N-((tetrahydrofuran-2-yl)methyl)pyrazine-2-carboxamide] | 3.1 |  | 1.7 | 99 |  | 14 | 68 | 2420
Cc1cnc2ccc(-c3nc(C(=O)NC4CCC4)c(N)nc3-c3ncco3)cn12 [Example 218, 3-amino-N-cyclobutyl-6-(3-methylimidazo[1,2-a]pyridin-6-yl)-5-(oxazol-2-yl)pyrazine-2-carboxamide] | 9.1 | > 10000 | 1.5 | 359 |  | 28 | 475 | 
Cc1scnc1CNC(=O)c1nc(-c2ccc(=O)n(C)c2)c(-c2ncco2)nc1N [Example 22, 3-amino-6-(1-methyl-6-oxo-1,6-dihydropyridin-3-yl)-N-((5-methylthiazol-4-yl)methyl)-5-(oxazol-2-yl)pyrazine-2-carboxamide] | 3.5 | 3380 | 60 | 2550 | ≥ 10 | 132 |  | 
Cn1cc(-c2nc(C(=O)NCc3c(F)cccc3F)c(N)nc2-c2ccc(F)cc2)ccc1=O [Example 29, 3-amino-N-[(2,6-difluorophenyl)methyl]-5-(4-fluorophenyl)-6-(1-methyl-6-oxo-1,6-dihydropyridin-3-yl)pyrazine-2-carboxamide] | 2.3 | 66 | 6.8 | 103 | ≥ 10 | 60 |  | 
Cn1cc(-c2nc(C(=O)NCc3ncccc3F)c(N)nc2-c2ncco2)ccc1=O [Example 14, 3-amino-N-((3-fluoropyridin-2-yl)methyl)-6-(1-methyl-6-oxo-1,6-dihydropyridin-3-yl)-5-(oxazol-2-yl)pyrazine-2-carboxamide] | 3.1 | 10000 | 98 | 768 | ≥ 10 | 213 |  | 
Nc1nc(-c2ncco2)c(-c2ccc3nccn3c2)nc1C(=O)NCc1c(F)cccc1F [Example 32, 3-amino-N-[(2,6-difluorophenyl)methyl]-6-[imidazo[1,2-a]pyridin-6-yl]-5-(1,3-oxazol-2-yl)pyrazine-2-carboxamide] |  | 494 | 0.2 | 3 | ≥ 10 | 2 |  | 
CN(C)c1cccc(CNC(=O)c2nc(-c3ccc(=O)n(C)c3)c(-c3ccc(F)cc3)nc2N)n1 [Example 13, 3-amino-N-[[6-(dimethylamino)pyridin-2-yl]methyl]-5-(4-fluorophenyl)-6-(1-methyl-6-oxo-1,6-dihydropyridin-3-yl)pyrazine-2-carboxamide] |  | 72 | 6.1 | 4640 | ≥ 10 | 51 |  | 
Cn1cc(-c2nc(C(=O)NCc3ncccc3OC(F)(F)F)c(N)nc2-c2ncco2)ccc1=O [Example 30, 3-amino-6-(1-methyl-6-oxo-1,6-dihydropyridin-3-yl)-5-(1,3-oxazol-2-yl)-N-[[3-(trifluoromethoxy)pyridin-2-yl]methyl]pyrazine-2-carboxamide] |  | 214 | 45 | 603 | ≥ 10 | 47 |  | 
CN(C)c1cccc(CNC(=O)c2nc(-c3ccc(=O)n(C)c3)c(-c3ncco3)nc2N)c1F [Example 33, 3-amino-N-(3-(dimethylamino)-2-fluorobenzyl)-6-(1-methyl-6-oxo-1,6-dihydropyridin-3-yl)-5-(oxazol-2-yl)pyrazine-2-carboxamide] |  | 3030 | 56 | ≥ 10000 | ≥ 10 | 123 |  | 
CN(C)c1ccc(F)c(CNC(=O)c2nc(-c3ccc(=O)n(C)c3)c(-c3ncco3)nc2N)c1 [Example 27, 3-amino-N-(5-(dimethylamino)-2-fluorobenzyl)-6-(1-methyl-6-oxo-1,6-dihydropyridin-3-yl)-5-(oxazol-2-yl)pyrazine-2-carboxamide] |  | 1770 | 60 | ≥ 10000 | ≥ 10 | 177 |  | 
COc1ccccc1CNC(=O)c1nc(-c2cc(C)nc(C)c2)c(-c2ccc(C)o2)nc1N [Example 61, 3-amino-6-(2,6-dimethylpyridin-4-yl)-N-(2-methoxybenzyl)-5-(5-methylfuran-2-yl)pyrazine-2-carboxamide] | 7.9 |  | 0.6 | ≥ 10000 |  | 6 | 52 | 
Cn1cc(-c2nc(C(=O)NCc3cccc(N4CCC4)n3)c(N)nc2-c2ncco2)ccc1=O [Example 26, 3-amino-N-[[6-(azetidin-1-yl)pyridin-2-yl]methyl]-6-(1-methyl-6-oxo-1,6-dihydropyridin-3-yl)-5-(1,3-oxazol-2-yl)pyrazine-2-carboxamide] |  | 725 | 108 | ≥ 10000 | ≥ 10 | 309 |  | 
Cn1cc(-c2nc(C(=O)NCc3c(F)cccc3F)c(N)nc2-n2nccn2)ccc1=O [Example 35, 3-amino-N-(2,6-difluorobenzyl)-6-(1-methyl-6-oxo-1,6-dihydropyridin-3-yl)-5-(2H-1,2,3-triazol-2-yl)pyrazine-2-carboxamide] | 3.2 | 112 | 15 | 203 | ≥ 10 | 43 |  | 
Cn1cc(-c2nc(C(=O)NCc3nc(N)ccc3F)c(N)nc2-c2ncco2)ccc1=O [Example 49, 3-amino-N-((6-amino-3-fluoropyridin-2-yl)methyl)-6-(1-methyl-6-oxo-1,6-dihydropyridin-3-yl)-5-(oxazol-2-yl)pyrazine-2-carboxamide] |  |  |  |  |  |  | 117 | 1710
Nc1nc(-c2ncco2)c(-c2ccc(=O)n(C(F)F)c2)nc1C(=O)NCc1ncccc1F [Example 31, 3-amino-6-[1-(difluoromethyl)-6-oxo-1,6-dihydropyridin-3-yl]-N-[(3-fluoropyridin-2-yl)methyl]-5-(1,3-oxazol-2-yl)pyrazine-2-carboxamide] |  | 35 | 34 | 164 | ≥ 10 | 75 |  | 
Nc1nc(-c2ncco2)c(-c2ccc3[nH]cnc3c2)nc1C(=O)NCc1ncccc1F [Example 47, 3-amino-6-(1H-1,3-benzodiazol-5-yl)-N-[(3-fluoropyridin-2-yl)methyl]-5-(1,3-oxazol-2-yl)pyrazine-2-carboxamide] |  |  |  |  |  |  | 696 | 10000
